Values belong to the compound of their own block, whether it stands above or below them.
Experiments:
Type in all cases: physicochemical
[1] = micellar particle size and polydispersity index (ZetaSizer, dynamic light scattering) of drug formulations at different dilutions
Description: The particle size of the micelles in the composition is typically in the range of about 5 to about 150 nm. The particle size may be determined e.g. using Dynamic Light Scattering (DLS) in 0.9% NaCl at 1 mg/mL drug concentration, preferably using a red laser with a wavelength of 633 nm.
Micellar size was measured using a ZetaSizer from Malvern Panalytical. […]
20 mg of example 1 was dispensed into a 25 mL round bottom flask and dissolved in methanol (3 mL). 800 μL of a stock solution of docetaxel in methanol (5 mg/mL) was added. The solution was evaporated to dryness in a rotary evaporator. Final drying was performed in a desiccator to remove residual solvent. Hydration of the dried film was performed by adding water for injection (1.0 mL) to a concentration of 4 mg/mL of docetaxel. The 4 mg/mL concentration was further diluted with 0.9% sodium chloride according to the table below. […]
A serial dilution was performed for the system docetaxel:compound 1. A stock solution of docetaxel in methanol was mixed with a stock solution of the micelle forming agent (compound 1) in a round bottom flask at a weight ratio of 1:5. The mixture was evaporated to dryness in a rotary evaporator. Final drying was performed in a desiccator to remove residual solvent. Hydration of the dried film was performed by adding water for injection (1.0 mL) to a concentration of 1 mg/mL of docetaxel. The resulting solution was filtered through a 0.22 μm sterile filter and further diluted with 0.9% sodium chloride solution.
(§1) 4.5 mg of compound 1 was dispensed into a 25 mL round bottom flask and dissolved in methanol (2 mL). 1500 μL of a stock solution of cabazitaxel in methanol (1.00 mg/mL) was added. The solution was evaporated to dryness in a rotary evaporator. Final drying was performed in a desiccator to remove residual solvent. […]

[2] = drug loading capacity (ratio of amount API:(API+excipient))
Description: (§2) The solution was evaporated to dryness in a rotary evaporator. Final drying was performed in a desiccator to remove residual solvent. Hydration of the dried film was performed by adding water for injection (1.2 mL). […] Drug loading capacity is defined as the ratio of amount API:(API+excipient).
20 mg of example 1 was dispensed into a 25 mL round bottom flask and dissolved in methanol (3 mL). 800 μL of a stock solution of docetaxel in methanol (5 mg/mL) was added. The solution was evaporated to dryness in a rotary evaporator. Final drying was performed in a desiccator to remove residual solvent. Hydration of the dried film was performed by adding water for injection (1.0 mL) to a concentration of 4 mg/mL of docetaxel. The 4 mg/mL concentration was further diluted with 0.9% sodium chloride according to the table below.
(§3) 11 mg of example 1 was dispensed into a 25 mL round bottom flask and dissolved in methanol (2 mL). 740 μL of a stock solution of docetaxel in methanol (4.96 mg/mL) was added. The solution was evaporated to dryness in a rotary evaporator. Final drying was performed in a desiccator to remove residual solvent.
(§4) 4.5 mg of compound 1 was dispensed into a 25 mL round bottom flask and dissolved in methanol (2 mL). 1500 μL of a stock solution of cabazitaxel in methanol (1.00 mg/mL) was added. The solution was evaporated to dryness in a rotary evaporator. Final drying was performed in a desiccator to remove residual solvent.
as §4, with “cyclosporin” for “cabazitaxel”
4.0 mg of compound 2 was dispensed into a 25 mL round bottom flask and dissolved in methanol (3 mL). 250 μL of a stock solution of docetaxel in methanol (5 mg/mL) was added. The solution was evaporated to dryness in a rotary evaporator. Final drying was performed in a desiccator to remove residual solvent. Hydration of the dried film was performed by adding water for injection (1.25 mL). […]
as §3, with “4.5” for “11”, “compound 3” for “example 1”, “(3” for “(2”, “305” for “740”
as §3, with “4.5” for “11”, “compound 3” for “example 1”, “(3” for “(2”, “[…]” for “740”

[3] = appearance of the hydrated drug formulation
Description: 3.8 mg of compound 1 was dispensed into a 25 mL round bottom flask and dissolved in methanol (2 mL). 240 μL of a stock solution of docetaxel in methanol (5 mg/mL) was added.
as §2, §3, §4
as §1, with “cyclosporin” for “cabazitaxel”
4.5 mg of compound 4 was dispensed into a round bottom flask and dissolved in methanol (3 mL). […] of a stock solution of docetaxel in methanol (4.96 mg/mL) was added. The solution was evaporated to dryness in a rotary evaporator. Final drying was performed in a desiccator (40 min) to remove residual solvent. Rehydration of the dried film was performed by adding 0.9% sodium chloride solution (1.5 mL).

[4] = micelles with docetaxel, ratio 2:1, 0.9% NaCl, docetaxel conc. 0.25 mg/mL
[5] = micelles with docetaxel, ratio 2:1, 0.9% NaCl, docetaxel conc. 0.5 mg/mL
[6] = micelles with docetaxel, ratio 2:1, 0.9% NaCl, docetaxel conc. 1 mg/mL
[7] = micelles with docetaxel, ratio 3:1, 0.9% NaCl, docetaxel conc. 0.25 mg/mL
[8] = micelles with docetaxel, ratio 3:1, 0.9% NaCl, docetaxel conc. 0.5 mg/mL
[9] = micelles with docetaxel, ratio 3:1, 0.9% NaCl, docetaxel conc. 1 mg/mL
[10] = docetaxel, ratio 3:1, docetaxel conc. 1 mg/mL
[11] = micelles with cabazitaxel, ratio 3:1, 0.9% NaCl, cabazitaxel conc. 0.25 mg/mL
[12] = micelles with cabazitaxel, ratio 3:1, 0.9% NaCl, cabazitaxel conc. 0.5 mg/mL
[13] = micelles with cabazitaxel, ratio 3:1, 0.9% NaCl, cabazitaxel conc. 1 mg/mL
[14] = micelles with cyclosporin, ratio 3:1, 0.9% NaCl, cyclosporin conc. 0.25 mg/mL
[15] = micelles with cyclosporin, ratio 3:1, 0.9% NaCl, cyclosporin conc. 0.5 mg/mL
[16] = micelles with cyclosporin, ratio 3:1, 0.9% NaCl, cyclosporin conc. 1 mg/mL
[17] = micelles with docetaxel, ratio 5:1, docetaxel conc. 0.25 mg/mL
[18] = micelles with docetaxel, ratio 5:1, docetaxel conc. 0.5 mg/mL
[19] = micelles with docetaxel, ratio 5:1, docetaxel conc. 1 mg/mL
[20] = micelles with docetaxel, 1.2 mg docetaxel + 3.8 mg compound, water 1.2 mL + 0.9% NaCl 1.0 mL
[21] = serial dilution, docetaxel:compound 1:5, compound conc. 0.08 mM
[22] = serial dilution, docetaxel:compound 1:5, compound conc. 0.12 mM
[23] = serial dilution, docetaxel:compound 1:5, compound conc. 0.15 mM
[24] = serial dilution, docetaxel:compound 1:5, compound conc. 0.3 mM
[25] = serial dilution, docetaxel:compound 1:5, compound conc. 0.6 mM
[26] = serial dilution, docetaxel:compound 1:5, compound conc. 1.2 mM
[27] = serial dilution, docetaxel:compound 1:5, compound conc. 2.4 mM
[28] = serial dilution, docetaxel:compound 1:5, compound conc. 4.8 mM

Particle size [1, 4]: 14.0 nm | Polydispersity index [1, 4]: 0.53 | Particle size [1, 5]: 19.9 nm | Polydispersity index [1, 5]: 0.76 | Particle size [1, 6]: 13.5 nm | Polydispersity index [1, 6]: 0.52 | Particle size [1, 7]: 11.8 nm | Polydispersity index [1, 7]: 0.27 | Particle size [1, 8]: 11.3 nm | Polydispersity index [1, 8]: 0.25 | Particle size [1, 9]: 9.30 nm | Polydispersity index [1, 9]: 0.33 | Drug loading capacity ([2]; docetaxel, ratio 2:1, docetaxel conc. 0.25 mg/mL): 25% | Drug loading capacity ([2]; docetaxel, ratio 2:1, docetaxel conc. 0.5 mg/mL): 25% | Drug loading capacity ([2]; docetaxel, ratio 2:1, docetaxel conc. 1 mg/mL): 25% | Drug loading capacity ([2]; docetaxel, ratio 3:1, docetaxel conc. 0.25 mg/mL): 25% | Drug loading capacity ([2]; docetaxel, ratio 3:1, docetaxel conc. 0.5 mg/mL): 25% | Drug loading capacity [2, 10]: 25% | appearance of formulation ([3]; formulation with docetaxel): transparent yellow solution
Structure (SMILES): COc1cc(C)c(/C=C/C(C)=C/C=C/C(C)=C/C(=O)N(C)CCS(=O)(=O)[O-])c(C)c1C.[Na+] [Compound 3]

Particle size [1, 11]: 121.2 nm | Polydispersity index [1, 11]: 0.079 | Particle size [1, 12]: 111.2 nm | Polydispersity index [1, 12]: 0.102 | Particle size [1, 13]: 87.6 nm | Polydispersity index [1, 13]: 0.145 | Particle size [1, 14]: 60.1 nm | Polydispersity index [1, 14]: 0.258 | Particle size [1, 15]: 53.3 nm | Polydispersity index [1, 15]: 0.293 | Particle size [1, 16]: 41.7 nm | Polydispersity index [1, 16]: 0.212 | Particle size [1, 7]: 56.0 nm | Polydispersity index [1, 7]: 0.29 | Particle size [1, 8]: 52.6 nm | Polydispersity index [1, 8]: 0.25 | Particle size [1, 9]: 47.7 nm | Polydispersity index [1, 9]: 0.24 | Particle size [1, 17]: 49.6 nm | Polydispersity index [1, 17]: 0.25 | Particle size [1, 18]: 41.5 nm | Polydispersity index [1, 18]: 0.24 | Particle size [1, 19]: 29.2 nm | Polydispersity index [1, 19]: 0.24 | Particle size [1, 20]: 7.0 nm | Polydispersity index [1, 20]: 0.20 | Particle size [1, 21]: 33.73 nm | Polydispersity index, pdi [1, 21]: 0.45 | Particle size [1, 22]: 32.72 nm | Polydispersity index, pdi [1, 22]: 0.39 | Particle size [1, 23]: 34.06 nm | Polydispersity index, pdi [1, 23]: 0.34 | Particle size [1, 24]: 37.85 nm | Polydispersity index, pdi [1, 24]: 0.25 | Particle size [1, 25]: 36.53 nm | Polydispersity index, pdi [1, 25]: 0.18 | Particle size [1, 26]: 36.5 nm | Polydispersity index, pdi [1, 26]: 0.16 | Particle size [1, 27]: 36.2 nm | Polydispersity index, pdi [1, 27]: 0.14 | Particle size [1, 28]: 35.4 nm | Polydispersity index, pdi [1, 28]: 0.11 | Drug loading capacity ([2]; cabazitaxel, ratio 3:1, cabazitaxel conc. 0.25 mg/mL): 25% | Drug loading capacity ([2]; cabazitaxel, ratio 3:1, cabazitaxel conc. 0.5 mg/mL): 25% | Drug loading capacity ([2]; cabazitaxel, ratio 3:1, cabazitaxel conc. 1 mg/mL): 25% | Drug loading capacity ([2]; cyclosporin, ratio 3:1, cyclosporin conc. 0.25 mg/mL): 25% | Drug loading capacity ([2]; cyclosporin, ratio 3:1, cyclosporin conc. 0.5 mg/mL): 25% | Drug loading capacity ([2]; cyclosporin, ratio 3:1, cyclosporin conc. 1 mg/mL): 25% | Drug loading capacity ([2]; docetaxel 1.2 mg + compound 3.8 mg): 24% | Drug loading capacity [2, 10]: 25% | Drug loading capacity ([2]; docetaxel, ratio 5:1, docetaxel conc. 1 mg/mL): 17% | appearance of formulation ([3]; formulation with cabazitaxel, 1 mg/mL in 0.9% NaCl): yellow transparent solution | appearance of formulation ([3]; formulation with cyclosporin, 1 mg/mL in 0.9% NaCl): yellow transparent solution | appearance of formulation ([3]; formulation with docetaxel): yellow transparent solution
Structure (SMILES): COc1cc(C)c(/C=C/C(C)=C/C=C/C(C)=C/C(=O)N(CCS(=O)(=O)[O-])C2CCCCC2)c(C)c1C.[Na+] [Compound 1]
trend of micellar size and RSD during dilution ([1]; docetaxel:compound 1:5, serial dilution with 0.9% NaCl): The micellar size and RSD showed no significant trend during dilution
